Data as given in PubChem BioAssay AID623938 (Vanderbilt Specialized Chemistry Center, 2012).
The source made the active and inactive calls. How the calls were made is not given here.

What follows are compounds tested against Muscarinic acetylcholine receptor M4 (Homo sapiens) (UniProt P08173) (assay: potency of ACh potentiation at hM4 – cell-based, calcium mobilization, human receptor, SAR follow-up (AID 623938)). Conditions: hM4 cells, PAM with EC20 ACh.
Muscarinic acetylcholine receptor M4 (Homo sapiens), sequence (P08173 whole entry, looked up): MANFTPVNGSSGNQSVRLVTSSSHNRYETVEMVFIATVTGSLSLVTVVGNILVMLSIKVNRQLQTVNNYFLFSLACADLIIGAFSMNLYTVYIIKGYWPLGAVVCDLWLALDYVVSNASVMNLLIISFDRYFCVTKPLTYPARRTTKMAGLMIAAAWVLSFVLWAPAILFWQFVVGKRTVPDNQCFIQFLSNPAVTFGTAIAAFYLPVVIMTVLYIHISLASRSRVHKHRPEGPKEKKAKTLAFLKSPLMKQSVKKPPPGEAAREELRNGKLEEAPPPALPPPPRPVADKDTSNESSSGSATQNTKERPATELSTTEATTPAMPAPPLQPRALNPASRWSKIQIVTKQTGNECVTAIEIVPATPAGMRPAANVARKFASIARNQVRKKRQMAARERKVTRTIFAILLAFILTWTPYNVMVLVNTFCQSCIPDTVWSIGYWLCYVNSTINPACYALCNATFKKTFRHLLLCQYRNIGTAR

Row | EC50 [nM] | outcome | SMILES
1 | 2300 |  | COc1cccc2sc(NC(=O)c3ccncc3)nc12
2 | 425 |  | COCCCNC(=O)c1sc2nc(C)c(Cl)c(C)c2c1N
3 | > 10000 |  | COc1ccc(C)c2sc(NC(=O)C3CCCOC3)nc12 (centres undefined)
4 | > 10000 |  | COCC(=O)Nc1nc2c(OC)ccc(C)c2s1
5 | 1070 |  | Cc1nc2sc(C(=O)NCc3ncccn3)c(N)c2c(C)c1Cl
6 | 57 |  | Cc1cc(CNC(=O)c2sc3nc(C)c(Cl)c(C)c3c2N)ccn1
7 |  | inactive | CCOc1ccc(NC(=O)c2sc3nc(C)c(Cl)c(C)c3c2N)cc1
8 | 89 |  | COc1ccc(CNC(=O)c2sc3nc(C)c(Cl)c(C)c3c2N)cc1
9 |  | active; potentiator | COc1ccc(NC(=O)c2sc3nc(C)c(Cl)c(C)c3c2N)cc1
10 | 3580 |  | COc1ccc(C)c2sc(NC(=O)NC3CCCC3)nc12
11 | > 10000 |  | COc1ccc(C)c2sc(NC(=O)N3CCCC3)nc12
12 | > 10000 |  | CCCC(=O)Nc1nc2c(OC)ccc(C)c2s1
13 | 1090 |  | Cc1nc2sc(C(=O)NCC3CCCCC3)c(N)c2c(C)c1Cl
14 | > 10000 |  | COc1ccc(C)c2sc(NC(=O)NC3CC3)nc12
15 | 2500 |  | COc1ccc(C)c2sc(NC(=O)c3cccnc3)nc12
16 | 745 |  | COc1ccc(C)c2sc(NC(=O)c3cnccn3)nc12
17 | 37 |  | Cc1nc2sc(C(=O)NCc3ccncc3)c(N)c2c(C)c1Cl
18 | 1400 |  | COc1ccc(C)c2sc(NC(=O)c3ccncc3)nc12
19 | 600 |  | Cc1nc2sc(C(=O)NC(C)c3ccncc3)c(N)c2c(C)c1Cl (centres undefined)

Row | EC50 [nM] | outcome | SMILES
20 | 174 |  | Cc1nc2sc(C(=O)NCc3nccs3)c(N)c2c(C)c1Cl
21 | > 10000 |  | COc1ccc(C)c2sc(C(=O)NC3CC3)nc12
22 | 120 |  | Cc1nc2sc(C(=O)NCc3cccc(F)c3F)c(N)c2c(C)c1Cl
23 | 29 |  | Cc1nc2sc(C(=O)NC3CCOC3)c(N)c2c(C)c1Cl (centres undefined)
24 | 170 |  | Cc1nc2sc(C(=O)NCc3ccc4c(c3)OCO4)c(N)c2c(C)c1Cl
25 | 596 |  | Cc1nc2sc(C(=O)NCCC3CCCN3C)c(N)c2c(C)c1Cl (centres undefined)
26 | 1430 |  | COc1ccc(C)c2sc(NC(=O)c3ccco3)nc12
27 | 183 |  | Cc1nc2sc(C(=O)NC(C)C)c(N)c2c(C)c1Cl
28 |  | active; potentiator | Cc1nc2sc(C(=O)NCc3ccc(Cl)cc3)c(N)c2c(C)c1Cl
29 | 154 |  | Cc1nc2sc(C(=O)NCc3ccccc3Cl)c(N)c2c(C)c1Cl
30 | 686 |  | Cc1nc2sc(C(=O)NCCc3ccccn3)c(N)c2c(C)c1Cl
31 | 188 |  | Cc1nc2sc(C(=O)NC3CCCCC3)c(N)c2c(C)c1Cl
32 | > 10000 |  | COc1ccc(C)c2sc(NC(=O)C(C)C)nc12
33 | 906 |  | Cc1nc2sc(C(=O)NC3COC3)c(N)c2c(C)c1Cl
34 | 601 |  | Cc1nc2sc(C(=O)NC(C)c3cccnc3)c(N)c2c(C)c1Cl (centres undefined)
35 | 250 |  | Cc1nc2sc(C(=O)NCc3cnccn3)c(N)c2c(C)c1Cl
36 | 220 |  | Cc1nc2sc(C(=O)NC3CCOCC3)c(N)c2c(C)c1Cl
37 | 21 |  | Cc1nc2sc(C(=O)NC3CC3)c(N)c2c(C)c1Cl
38 | 328 |  | Cc1nc2sc(C(=O)NCc3cccnc3)c(N)c2c(C)c1Cl

Row | EC50 [nM] | outcome | SMILES
39 | 1140 |  | Cc1nc2sc(C(=O)NCc3ccc(C(F)(F)F)cc3)c(N)c2c(C)c1Cl
40 | 222 |  | Cc1nc2sc(C(=O)NCc3ccnnc3)c(N)c2c(C)c1Cl
41 | 133 |  | Cc1nc2sc(C(=O)NCc3ccccc3)c(N)c2c(C)c1Cl
42 | 372 |  | Cc1nc2sc(C(=O)NC(C)(C)C)c(N)c2c(C)c1Cl
43 | > 10000 |  | COc1ccc(C)c2sc(NC(=O)C3CCC3)nc12
44 |  | inactive | Cc1nc2sc(C(=O)NCCc3cccnc3)c(N)c2c(C)c1Cl
45 | 293 |  | Cc1nc2sc(C(=O)NCc3ccccn3)c(N)c2c(C)c1Cl
46 | 1900 |  | COc1ccc(C)c2sc(NC(=O)C3=COCCO3)nc12
47 |  | active; potentiator | Cc1nc2sc(C(=O)NCc3ccc(F)c(F)c3)c(N)c2c(C)c1Cl
48 | 211 |  | Cc1nc2sc(C(=O)NCCc3ccncc3)c(N)c2c(C)c1Cl
49 | > 10000 |  | COc1ccc(C)c2sc(NC(=O)C3CCCCC3)nc12
50 | > 10000 |  | COc1ccc(C)c2sc(NC(=O)C3CCCC3)nc12
51 | 132 |  | Cc1ccc(CNC(=O)c2sc3nc(C)c(Cl)c(C)c3c2N)cc1
52 | 1410 |  | Cc1nc2sc(C(=O)NC(C)c3ccccn3)c(N)c2c(C)c1Cl (centres undefined)
53 | > 10000 |  | COc1ccc(C)c2sc(NC(=O)C3CC3)nc12
54 | > 10000 |  | COc1ccc(C)c2sc(NC(=O)C3CC3C)nc12 (centres undefined)
55 | 173 |  | Cc1nc2sc(C(=O)NCc3ccncn3)c(N)c2c(C)c1Cl
56 |  | inactive | Cc1nc2sc(C(=O)Nc3ccccc3N(C)C)c(N)c2c(C)c1Cl

Same assay, conditions: hM4 cells, PAM with EC20 ACh, stronger effect = higher value

Row | % ACh max | SMILES
57 | inactive | O=C(Nc1nc2cccnc2s1)c1cccnn1
58 | 36.4% | COc1ccc(C)c2sc(C(=O)NC3COC3)nc12
59 | inactive | COc1ccc(C)c2sc(NC(=O)NCc3ccncc3)nc12
60 | inactive | COc1ccc(C)c2sc(NS(=O)(=O)c3ccc(F)cc3F)nc12
61 | inactive | O=C(Nc1nc2cccnc2s1)C1CCCC1
62 | inactive | COc1ccc(C)c2sc(NS(=O)(=O)c3cccc(Cl)c3)nc12
63 | inactive | COc1ccc(C)c2sc(NS(=O)(=O)c3cnn(C)c3)nc12
64 | inactive | O=C(Nc1nc2cccnc2s1)C1CCC1
65 | inactive | COc1ccc(C)c2sc(NC(=O)Nc3ccncc3)nc12
66 | inactive | COc1ccc(C)c2sc(NC(=O)NC3CCC3)nc12
67 | inactive | COc1ccc(C)c2sc(NC(=O)C3=C(C)OCCO3)nc12
68 | inactive | Clc1cccc(Nc2n[nH]c3ccccc23)c1
69 | inactive | CCCCC1CC1C(=O)Nc1nc2c(OC)ccc(C)c2s1 (centres undefined)
70 | inactive | COc1ccc(C)c2sc(NC(=O)N3CCCCC3)nc12
71 | inactive | COc1ccc(C)c2sc(NC(=O)CCc3ccccc3)nc12
72 | inactive | COc1ccc(C)c2sc(NS(=O)(=O)c3cccc(C)c3)nc12
73 | inactive | O=C(Nc1nc2cccnc2s1)c1cnccn1
74 | inactive | COc1ccc(C)c2sc(NC(=O)CC(C)(C)C)nc12
75 | inactive | COc1ccc(C)c2sc(NC(=O)c3ccc(F)c(F)c3)nc12

Row | % ACh max | SMILES
76 | inactive | O=C(Nc1nc2ccccc2s1)C1CCCCO1 (centres undefined)
77 | inactive | COc1ccc(C)c2sc(NC(=O)c3ccccn3)nc12
78 | inactive | COc1ccc(C)c2sc(NC(C)=O)nc12
79 | inactive | COc1ccc(C)c2sc(NC(=O)c3ccc(F)cc3F)nc12
80 | inactive | COc1ccc2nc(NC(=O)c3ccncc3)sc2n1
81 | inactive | COc1ccc(C)c2sc(C(=O)NC3CCCCC3)nc12
82 | inactive | COc1ccc(C)c2sc(C(=O)Nc3ccncc3)nc12
83 | inactive | COc1ccc(C)c2sc(NS(=O)(=O)c3cc(C)ccn3)nc12
84 | inactive | COc1ccc(C)c2sc(NC(=O)c3ccc(C)cc3)nc12
85 | 64.1% | COc1ccc(C)c2sc(NC(=O)C3CCCCO3)nc12 (centres undefined)
86 | inactive | COc1ccc(C)c2sc(NC(=O)c3c(F)cccc3F)nc12
87 | inactive | COc1ccc(C)c2sc(NC(=O)c3ccc(F)cc3)nc12
88 | inactive | COc1ccc(C)c2sc(C(=O)Nc3ccc(C)nc3)nc12
89 | inactive | COc1ccc(C)c2sc(NC(=O)c3cc(F)cc(F)c3)nc12
90 | inactive | COc1ccc(C)c2sc(NS(=O)(=O)c3ccc(C(F)(F)F)cc3)nc12
91 | inactive | COc1ccc(C)c2sc(NCC3CC3)nc12
92 | inactive | COc1ccc(C)c2sc(C(=O)NC3CCCC3)nc12
93 | inactive | COc1ccc(C)c2sc(C(=O)NCc3ccncc3)nc12
94 | inactive | COc1ccc(C)c2sc(NS(=O)(=O)c3ccc4occc4c3)nc12
